Results from patent US11000033B2, “Ketone or oxime compound, and herbicide” (NISSAN CHEMICAL CORPORATION, priority 2014, dated 2021).

Assays:
Type in all cases: in vivo
Abutilon theophrasti = test: Test Example 5: herbicidal effect by foliage application, plastic box (symbol M); conditions: 320 g/ha, 3 weeks after application
How it was run: (§1)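 Seeds were sown in sterilized diluvial soil, covered with about 1.5 cm of soil and grown 14 days in a greenhouse at 25° C. to 30° C. An emulsifiable formulation diluted in water to a set rate was sprayed over foliage, and injury was scored 3 weeks later.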

Leptochloa chinensis = test: Test Example 3: herbicidal effect by foliage application, Wagner pot (symbol D); conditions: application herbicide amount 320 g/ha
How it was run: (§2)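 Herbicidal activity was rated three weeks after a foliar spray of diluted emulsion concentrate, applied at a predetermined dose to plants grown for 14 days from seed in waterlogged alluvial soil within a 25–30 °C greenhouse.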

[1] = system: Echinochloa crus-galli var. crus-galli; test: Test Example 3: herbicidal effect by foliage application, Wagner pot (symbol H); conditions: application herbicide amount 320 g/ha
How it was run: as §2

Digitaria ciliaris = test: Test Example 4: herbicidal effect by soil treatment (symbol F); conditions: 320 g/ha
How it was run: (§3)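 Seeds were sown in sterilized diluvial soil, covered with about 1.5 cm of soil, and the soil surface was sprayed with a water-diluted emulsion of the compound at a predetermined rate. Plants grew in a greenhouse at 25° C. to 30° C.; effects were scored visually 3 weeks after application.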

[2] = system: Echinochloa oryzacola Vasing.; test: Test Example 1: herbicidal activity, application before weed generation in submerged conditions (symbol A); conditions: application herbicide amount 320 g/ha
How it was run: (§4)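 Ratings (5: ≥90%, near complete withering; 4: 70–<90%; 3: 40–<70%; 2: 20–<40%; 1: 5–<20%; 0: ≤5%) were assigned 3 weeks after the diluted emulsion was applied to the water surface of freshly sown, submerged pots.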

Alopecurus myosuroides [3] = test: Test Example 5: herbicidal effect by foliage application, plastic box (symbol J); conditions: 320 g/ha, 3 weeks after application
How it was run: as §1

Galium spurium = test: Test Example 5: herbicidal effect by foliage application, plastic box (symbol Q); conditions: 320 g/ha, 3 weeks after application
How it was run: as §1

Scirpus juncoides = test: Test Example 1: herbicidal activity, application before weed generation in submerged conditions (symbol B); conditions: application herbicide amount 320 g/ha
How it was run: as §4

corn = test: Test Example 4: effect on crop by soil treatment (symbol c); conditions: 320 g/ha
How it was run: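 Seeds were sown in spots on sterilized diluvial soil in a plastic box and covered with about 1.5 cm of soil. Plants were then grown in a greenhouse at 25° C. to 30° C.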

Apera spica-venti = test: Test Example 5: herbicidal effect by foliage application, plastic box (symbol L); conditions: 320 g/ha, 3 weeks after application
How it was run: as §1

Alopecurus myosuroides [4] = test: Test Example 4: herbicidal effect by soil treatment (symbol J); conditions: 320 g/ha
How it was run: as §3

wheat = test: Test Example 5: effect on crop by foliage application, plastic box (symbol e); conditions: 320 g/ha, 3 weeks after application
How it was run: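 Soil: sterilized diluvial. Container: plastic box, 21 × 13 cm, 7 cm deep. Sowing: spot-like, ~1.5 cm cover. Growth: greenhouse, 25° C. to 30° C.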

Cyperus difformis = test: Test Example 3: herbicidal effect by foliage application, Wagner pot (symbol E); conditions: application herbicide amount 320 g/ha
How it was run: as §2

Stellaria media = test: Test Example 5: herbicidal effect by foliage application, plastic box (symbol P); conditions: 320 g/ha, 3 weeks after application
How it was run: as §1

[5] = system: directly sowed rice plant; test: Test Example 3: effect on crop by foliage application, Wagner pot (symbol b); conditions: application herbicide amount 320 g/ha
How it was run: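 Alluvial soil in a 1/10000-are Wagner pot was flooded to a water depth of 0.1–0.5 cm. Echinochloa crus-galli var. crus-galli, Leptochloa chinensis, Cyperus difformis and rice were sown into it and grown in a greenhouse at 25–30 °C.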

rapeseed = test: Test Example 4: effect on crop by soil treatment (symbol g); conditions: 320 g/ha
How it was run: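 Steps: fill box with sterilized diluvial soil; sow seed spot-like; cover with ~1.5 cm soil; grow in greenhouse (25° C. to 30° C.).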

| SMILES | M: Abutilon theophrasti, herbicidal effect (criteria 0-5) (Abutilon theophrasti) | herbicidal effect on D (Leptochloa chinensis), grade 0-5 (Leptochloa chinensis) | herbicidal effect on H (Echinochloa crus-galli var. crus-galli), grade 0-5 [1] | F: Digitaria ciliaris, herbicidal effect grade (Digitaria ciliaris) | Herbicidal effect grade, A: Echinochloa oryzacola Vasing. [2] | J: Alopecurus myosuroides, herbicidal effect (criteria 0-5) (Alopecurus myosuroides [3]) | Q: Galium spurium, herbicidal effect (criteria 0-5) (Galium spurium) | Herbicidal effect grade, B: Scirpus juncoides (Scirpus juncoides) | c: corn, effect grade on crop (corn) | L: Apera spica-venti, herbicidal effect (criteria 0-5) (Apera spica-venti) | J: Alopecurus myosuroides, herbicidal effect grade (Alopecurus myosuroides [4]) | e: wheat, effect on crop (criteria 0-5) (wheat) | herbicidal effect on E, grade 0-5 (Cyperus difformis) | P: Stellaria media, herbicidal effect (criteria 0-5) (Stellaria media) | effect on crop b (directly sowed rice plant), grade 0-5 [5] | g: rapeseed, effect grade on crop (rapeseed) |
| --- | --- | --- | --- | --- | --- | --- | --- | --- | --- | --- | --- | --- | --- | --- | --- | --- |
| CON=C(C)CC1CC(OC(=O)C(C)Oc2ccc(Oc3cnc4cc(Cl)ccc4n3)cc2)=C(c2c(C)cc(C)cc2C)C1=O (stereo not drawn) [1-087] | 5 (Herbicidal ratio of 90% or more (almost completely withered)) | 5 (Herbicidal ratio of 90% or more (almost completely withered)) | 5 (Herbicidal ratio of 90% or more (almost completely withered)) | 5 (Herbicidal ratio of 90% or more (almost completely withered)) | 5 (Herbicidal ratio of 90% or more (almost completely withered)) | 5 (Herbicidal ratio of 90% or more (almost completely withered)) | 4 (Herbicidal ratio of 70% or higher and lower than 90%) | 5 (Herbicidal ratio of 90% or more (almost completely withered)) | 3 (Herbicidal ratio of 40% or higher and lower than 70%) | 5 (Herbicidal ratio of 90% or more (almost completely withered)) | 5 (Herbicidal ratio of 90% or more (almost completely withered)) | 5 (Herbicidal ratio of 90% or more (almost completely withered)) | 5 (Herbicidal ratio of 90% or more (almost completely withered)) | 3 (Herbicidal ratio of 40% or higher and lower than 70%) | 5 (Herbicidal ratio of 90% or more (almost completely withered)) | 5 (Herbicidal ratio of 90% or more (almost completely withered)) |
| CON=C(C)CC1CC(OC(=O)C2=CCCC2)=C(c2c(C)cc(C)cc2C)C1=O (stereo not drawn) [1-088] | 4 (Herbicidal ratio of 70% or higher and lower than 90%) | 5 (Herbicidal ratio of 90% or more (almost completely withered)) | 5 (Herbicidal ratio of 90% or more (almost completely withered)) | 5 (Herbicidal ratio of 90% or more (almost completely withered)) | 5 (Herbicidal ratio of 90% or more (almost completely withered)) | 5 (Herbicidal ratio of 90% or more (almost completely withered)) | 0 (Herbicidal ratio of 5% or lower (almost no effect)) | 5 (Herbicidal ratio of 90% or more (almost completely withered)) | 4 (Herbicidal ratio of 70% or higher and lower than 90%) | 5 (Herbicidal ratio of 90% or more (almost completely withered)) | 5 (Herbicidal ratio of 90% or more (almost completely withered)) | 5 (Herbicidal ratio of 90% or more (almost completely withered)) | 5 (Herbicidal ratio of 90% or more (almost completely withered)) | 3 (Herbicidal ratio of 40% or higher and lower than 70%) | 5 (Herbicidal ratio of 90% or more (almost completely withered)) | 4 (Herbicidal ratio of 70% or higher and lower than 90%) |
| CON=C(C)CC1CC(OC(=O)C2=C(Br)CCC2)=C(c2c(C)cc(C)cc2C)C1=O (stereo not drawn) [1-089] | 4 (Herbicidal ratio of 70% or higher and lower than 90%) | 5 (Herbicidal ratio of 90% or more (almost completely withered)) | 5 (Herbicidal ratio of 90% or more (almost completely withered)) | 5 (Herbicidal ratio of 90% or more (almost completely withered)) | 5 (Herbicidal ratio of 90% or more (almost completely withered)) | 5 (Herbicidal ratio of 90% or more (almost completely withered)) | 0 (Herbicidal ratio of 5% or lower (almost no effect)) | 5 (Herbicidal ratio of 90% or more (almost completely withered)) | 5 (Herbicidal ratio of 90% or more (almost completely withered)) | 5 (Herbicidal ratio of 90% or more (almost completely withered)) | 5 (Herbicidal ratio of 90% or more (almost completely withered)) | 5 (Herbicidal ratio of 90% or more (almost completely withered)) | 5 (Herbicidal ratio of 90% or more (almost completely withered)) | 0 (Herbicidal ratio of 5% or lower (almost no effect)) | 5 (Herbicidal ratio of 90% or more (almost completely withered)) | 4 (Herbicidal ratio of 70% or higher and lower than 90%) |
